Experimental data from PubChem BioAssay (NCI).
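How tested: cells in 96-well plates exposed to compound for 48 hours at five concentrations. TGI denotes the concentration required for complete inhibition of growth.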

What was measured:
Assay in all cases: growth of human tumour cells (NCI), 48 h
786-0 renal = system: 786-0 renal
A498 renal = system: A498 renal
A549 NSCLC = system: A549 NSCLC
ACHN renal = system: ACHN renal
CAKI-1 renal = system: CAKI-1 renal
CCRF-CEM leukemia = system: CCRF-CEM leukemia
COLO 205 colon = system: COLO 205 colon
DLD-1 colon = system: DLD-1 colon
DMS 114 small cell lung = system: DMS 114 small cell lung
DMS 273 small cell lung = system: DMS 273 small cell lung
EKVX NSCLC = system: EKVX NSCLC
HCC-2998 colon = system: HCC-2998 colon
HCT-116 colon = system: HCT-116 colon
HCT-15 colon = system: HCT-15 colon
HOP-18 NSCLC = system: HOP-18 NSCLC
HOP-62 NSCLC = system: HOP-62 NSCLC
HOP-92 NSCLC = system: HOP-92 NSCLC
HT29 colon = system: HT29 colon
IGROV1 ovarian = system: IGROV1 ovarian
K-562 leukemia = system: K-562 leukemia
KM12 colon = system: KM12 colon
KM20L2 colon = system: KM20L2 colon
LOX IMVI melanoma = system: LOX IMVI melanoma
LXFL 529 NSCLC = system: LXFL 529 NSCLC
M14 melanoma = system: M14 melanoma
M19-MEL melanoma = system: M19-MEL melanoma
MALME-3M melanoma = system: MALME-3M melanoma
MOLT-4 leukemia = system: MOLT-4 leukemia
NCI-H226 lung = system: NCI-H226 lung
NCI-H23 lung = system: NCI-H23 lung
NCI-H460 lung = system: NCI-H460 lung
NCI-H522 lung = system: NCI-H522 lung
OVCAR-3 ovarian = system: OVCAR-3 ovarian
OVCAR-4 ovarian = system: OVCAR-4 ovarian
OVCAR-5 ovarian = system: OVCAR-5 ovarian
OVCAR-8 ovarian = system: OVCAR-8 ovarian
RPMI-8226 leukemia = system: RPMI-8226 leukemia
RXF 393 renal = system: RXF 393 renal
RXF-631 renal = system: RXF-631 renal
SF-268 CNS = system: SF-268 CNS
SF-295 CNS = system: SF-295 CNS
SF-539 CNS = system: SF-539 CNS
SK-MEL-2 melanoma = system: SK-MEL-2 melanoma
SK-MEL-28 melanoma = system: SK-MEL-28 melanoma
SK-MEL-5 melanoma = system: SK-MEL-5 melanoma
SK-OV-3 ovarian = system: SK-OV-3 ovarian
SN12C renal = system: SN12C renal
SNB-19 CNS = system: SNB-19 CNS
SNB-75 CNS = system: SNB-75 CNS
SNB-78 CNS = system: SNB-78 CNS
SR leukemia = system: SR leukemia
SW-620 colon = system: SW-620 colon
TK-10 renal = system: TK-10 renal
U251 CNS = system: U251 CNS
UACC-257 melanoma = system: UACC-257 melanoma
UACC-62 melanoma = system: UACC-62 melanoma
UO-31 renal = system: UO-31 renal
XF 498 CNS = system: XF 498 CNS

Compound: Cc1ccc(NC(=O)CCc2nnc3s/c(=C\c4cccc([N+](=O)[O-])c4)c(=O)n23)cc1
- TGI (786-0 renal): > 100 µM
- TGI (A498 renal): > 100 µM
- TGI (A549 NSCLC): > 100 µM
- TGI (ACHN renal): > 100 µM
- TGI (CAKI-1 renal): > 100 µM
- TGI (CCRF-CEM leukemia): > 100 µM
- TGI (COLO 205 colon): > 100 µM
- TGI (DLD-1 colon): > 100 µM
- TGI (DMS 114 small cell lung): > 100 µM
- TGI (DMS 273 small cell lung): > 100 µM
- TGI (EKVX NSCLC): > 100 µM
- TGI (HCC-2998 colon): > 100 µM
- TGI (HCT-116 colon): > 100 µM
- TGI (HCT-15 colon): > 100 µM
- TGI (HOP-18 NSCLC): > 100 µM
- TGI (HOP-62 NSCLC): > 100 µM
- TGI (HOP-92 NSCLC): > 100 µM
- TGI (HT29 colon): > 100 µM
- TGI (IGROV1 ovarian): > 100 µM
- TGI (K-562 leukemia): > 100 µM
- TGI (KM12 colon): > 100 µM
- TGI (KM20L2 colon): > 100 µM
- TGI (LOX IMVI melanoma): > 100 µM
- TGI (LXFL 529 NSCLC): > 100 µM
- TGI (M14 melanoma): > 100 µM
- TGI (M19-MEL melanoma): > 100 µM
- TGI (MALME-3M melanoma): > 100 µM
- TGI (MOLT-4 leukemia): > 100 µM
- TGI (NCI-H226 lung): > 100 µM
- TGI (NCI-H23 lung): > 100 µM
- TGI (NCI-H460 lung): > 100 µM
- TGI (NCI-H522 lung): > 100 µM
- TGI (OVCAR-3 ovarian): > 100 µM
- TGI (OVCAR-4 ovarian): > 100 µM
- TGI (OVCAR-5 ovarian): > 100 µM
- TGI (OVCAR-8 ovarian): > 100 µM
- TGI (RPMI-8226 leukemia): > 100 µM
- TGI (RXF 393 renal): > 100 µM
- TGI (RXF-631 renal): > 100 µM
- TGI (SF-268 CNS): > 100 µM
- TGI (SF-295 CNS): > 100 µM
- TGI (SF-539 CNS): > 100 µM
- TGI (SK-MEL-2 melanoma): > 100 µM
- TGI (SK-MEL-28 melanoma): > 100 µM
- TGI (SK-MEL-5 melanoma): > 100 µM
- TGI (SK-OV-3 ovarian): > 100 µM
- TGI (SN12C renal): > 100 µM
- TGI (SNB-19 CNS): > 100 µM
- TGI (SNB-75 CNS): > 100 µM
- TGI (SNB-78 CNS): > 100 µM
- TGI (SR leukemia): > 100 µM
- TGI (SW-620 colon): 38.6 µM
- TGI (TK-10 renal): > 100 µM
- TGI (U251 CNS): > 100 µM
- TGI (UACC-257 melanoma): > 100 µM
- TGI (UACC-62 melanoma): > 100 µM
- TGI (UO-31 renal): > 100 µM
- TGI (XF 498 CNS): > 100 µM
